We go through 36 molecules from patent publication US9790231B2 (LUPIN LIMITED, priority 2013, dated 2017).

Structures can show the parent of a compound that is named as a salt. Some results are limits rather than exact numbers.

This assay has as its system IL-2 secretion by Jurkat T cells. Nature of the assay: Inhibition of IL-2 secretion (PHA-stimulated Jurkat T cells, ELISA). Type of assay: cell-based. Conditions: Homo sapiens, 20 to 24 hours. As for the experimental part: The CRAC channel modulatory activity of the compounds were thus evaluated by measuring the secretion of IL-2 by antigen stimulated T-cells in vitro. Alternatively, such activity can also be evaluated by assay methods known to one skilled in the art.
Inhibition of IL-2 secretion: Jurkat T cells were seeded at a density of 0.5 to 1 million cells per well in RPMI medium. Test compounds from this invention were added to the cells at different concentrations. This was followed by the addition of PHA, a T cell mitogen after 10 minutes. The cells were then incubated for 20 to 24 hours in a CO2 incubator at 37° C. After incubation with the compounds, cells were centrifuged; the supernatant was collected and processed for ELISA to quantitate the amount of IL-2 secreted. A commercial ELISA kit (R&D Systems, Inc. Minneapolis, Minn., USA) was used to estimate the IL-2 concentrations. Amount of IL-2 secreted by cells stimulated with PHA was considered as a 100% maximal signal and the decrease in amount of IL-2 secreted by cells treated with the test compounds was expressed as percent inhibition of the maximal signal. The dose response data was analyzed using 4-parametric sigmoidal dose response (variable slope) curve-fit.
In general terms: In an ELISA, binding on a coated surface is turned into a signal by an enzyme label.
In general, IC50 refers to the concentration at which inhibition is half-maximal. A higher IC50 goes with a need for much substance. Take `Cc1cc2c(cc1-c1ccc(NC(=O)c3c(F)cccc3F)cc1)OC(C)(C)CC2N(C)C` (stereo not drawn) [Example 62, N-(4-(4-(Dimethylamino)-2,2,6-trimethylchroman-7-yl)phenyl)-2,6-difluorobenzamide]: the IC50 is 50 to 100 nM. Then `Cc1cc2c(cc1-c1ccc(C(=O)Nc3c(F)cncc3F)cc1)OC1(CCC1)CC2=O` [Example 64, N-(3,5-Difluoropyridin-4-yl)-4-(6-methyl-4-oxospiro[chroman-2,1′-cyclobutan]-7-yl)benzamide], with less than 25 nM; and `Cc1cc2c(cc1-c1ccc(C(=O)Nc3c(F)cncc3F)cc1)OC1(CCC1)CC2` [Example 66, N-(3,5-Difluoropyridin-4-yl)-4-(6-methylspiro[chroman-2,1′-cyclobutan]-7-yl)benzamide], with less than 25 nM.

The molecule `Cc1cc2c(cc1-c1ccc(C(=O)Nc3c(Cl)cncc3Cl)cc1)OC1(CCC1)CC2` [Example 67, N-(3,5-Dichloropyridin-4-yl)-4-(6-methylspiro[chroman-2,1′-cyclobutan]-7-yl)benzamide] registered a 50% inhibitory concentration (IC50) of 25 to 50 nM. In turn, `O=C(Nc1ccc(C2=CC3(CCC3)Oc3ccccc32)cc1)c1c(F)cccc1F` [Example 68, 2,6-Difluoro-N-(4-(spiro[chromene-2,1′-cyclobutan]-4-yl)phenyl)benzamide] gave a 50% inhibitory concentration (IC50) of less than 25 nM.

With `O=C(Nc1ccc(C2CC3(CCC3)Oc3ccccc32)cc1)c1c(F)cccc1F` (stereo not drawn) [Example 69, 2,6-Difluoro-N-(4-(spiro[chroman-2,1′-cyclobutan]-4-yl)phenyl)benzamide], the IC50 lay in the range of 100 to 500 nM. For the molecule `O=C(Nc1ccc(C2=CC3(CCC3)Oc3ccccc32)cn1)c1c(F)cccc1F` [Example 72, 2,6-Difluoro-N-(5-(spiro[chromene-2,1′-cyclobutan]-4-yl)pyridin-2-yl)benzamide], the IC50 was in the range of 25 to 50 nM. Then `Cc1ccc2c(c1)C(c1ccc(NC(=O)c3c(F)cccc3F)cc1)=CC1(CCC1)O2` [Example 75, 2,6-Difluoro-N-(4-(6-methylspiro[chromene-2,l′-cyclobutan]-4-yl)phenyl)benzamide], with less than 25 nM; and `Cc1ccc2c(c1)C(c1cnc(NC(=O)c3c(F)cccc3F)cn1)=CC1(CCC1)O2` [Example 76, 2,6-Difluoro-N-(5-(6-methylspiro[chromene-2,1′-cyclobutan]-4-yl)pyrazin-2-yl)benzamide], with 50 to 100 nM; and `Cc1ccc2c(c1)OC1(C=C2c2ccc(NC(=O)c3c(F)cccc3F)cc2)CCC1` [Example 77, 2,6-Difluoro-N-(4-(7-methylspiro[chromene-2,1′-cyclobutan]-4-yl)phenyl)benzamide], with 50 to 100 nM. Then `CC1(C)C=C(c2ccc(NC(=O)c3c(F)cccc3F)cc2)c2ccccc2O1` [Example 79, N-(4-(2,2-Dimethyl-2H-chromen-4-yl)phenyl)-2,6-difluorobenzamide], with 25 to 50 nM; and `CC1(C)CC(c2ccc(NC(=O)c3c(F)cccc3F)cc2)c2ccccc2O1` (stereo not drawn) [Example 80, N-(4-(2,2-Dimethylchroman-4-yl)phenyl)-2,6-difluorobenzamide], with 100 to 500 nM; and `CC1(C)C=C(c2cnc(NC(=O)c3c(F)cccc3F)cn2)c2ccccc2O1` [Example 81, N-(5-(2,2-Dimethyl-2H-chromen-4-yl)pyrazin-2-yl)-2,6-difluorobenzamide], with 50 to 100 nM. Then `Cc1ccc2c(c1)OC(C)(C)C=C2c1ccc(NC(=O)c2c(F)cccc2F)cc1` [Example 87, 2,6-Difluoro-N-(4-(2,2,7-trimethyl-2H-chromen-4-yl)phenyl)benzamide], with 50 to 100 nM; and `Cc1cccc2c1OC(C)(C)C=C2c1cnc(NC(=O)c2c(F)cccc2F)cn1` [Example 89, 2,6-Difluoro-N-(5-(2,2,8-trimethyl-2H-chromen-4-yl)pyrazin-2-yl)benzamide], with less than 25 nM. In turn, `COCC1(C)C=C(c2ccc(NC(=O)c3c(F)cccc3F)cc2)c2ccccc2O1` (stereo not drawn) [Example 90] registered an IC50 of 25 to 50 nM. On to `COCC1(C)C=C(c2ccc(NC(=O)c3c(F)cccc3F)cc2)c2cc(C)ccc2O1` (stereo not drawn) [Example 91], for which the IC50 lay within 25 to 50 nM.

Molecule `CC1(CO)C=C(c2ccc(NC(=O)c3c(F)cccc3F)cc2)c2ccccc2O1` (stereo not drawn) [Example 93, 2,6-Difluoro-N-(4-(2-(hydroxymethyl)-2-methyl-2H-chromen-4-yl)phenyl)benzamide] returned an IC50 of 50 to 100 nM. Then `Cc1ccc2c(c1)C(c1ccc(NC(=O)c3c(F)cccc3F)cc1)=CC(C)(CO)O2` (stereo not drawn) [Example 95, 2,6-Difluoro-N-(4-(2-(hydroxymethyl)-2,6-dimethyl-2H-chromen-4-yl)phenyl)benzamide], with 50 to 100 nM. Then `Cc1cccc2c1OC(C)(C)C=C2c1ccc(NC(=O)c2c(F)cccc2F)nc1` [Example 98, 2,6-Difluoro-N(5-(2,2,8-trimethyl-2H-chromen-4-yl)pyridin-2-yl)benzamide], with 25 to 50 nM; and `Cc1cccc2c1OC1(C=C2c2cnc(NC(=O)c3c(F)cccc3F)cn2)CCC1` [Example 100, 2,6-Difluoro-N-(5-(8-methylspiro[chromene-2,1′-cyclobutan]-4-yl)pyrazin-2-yl)benzamide], with less than 25 nM. Then `Cc1cccc2c1OC1(C=C2c2ccc(NC(=O)c3c(F)cccc3F)nc2)CCC1` [Example 101, 2,6-Difluoro-N-(5-(8-methylspiro[chromene-2,1′-cyclobutan]-4-yl)pyridin-2-yl)benzamide], with less than 25 nM; and `Cc1cccc2c1OC1(C=C2c2ccc(NC(=O)c3c(F)cccc3F)cn2)CCC1` [Example 102, 2,6-Difluoro-N(6-(8-methylspiro[chromene-2,1′-cyclobutan]-4-yl)pyridin-3-yl)benzamide], with 25 to 50 nM. `COCC1(C)C=C(c2cnc(NC(=O)c3c(F)cccc3F)cn2)c2cccc(C)c2O1` (stereo not drawn) [Example 103, 2,6-Difluoro-N-(5-(2-(methoxymethyl)-2,8-dimethyl-2H-chromen-4-yl)pyrazin-2-yl)benzamide] returned an IC50 of less than 25 nM.

Molecule `COCC1(C)C=C(c2ccc(NC(=O)c3c(F)cccc3F)nc2)c2cccc(C)c2O1` (stereo not drawn) [Example 104, 2,6-Difluoro-N-(5-(2-(methoxymethyl)-2,8-dimethyl-2H-chromen-4-yl)pyridin-2-yl)benzamide] came in with an IC50 of less than 25 nM. In the case of `COCC1(C)C=C(c2ccc(NC(=O)c3c(F)cccc3F)cn2)c2cccc(C)c2O1` (stereo not drawn) [Example 105, 2,6-Difluoro-N-(6-(2-(methoxymethyl)-2,8-dimethyl-2H-chromen-4-yl)pyridin-3-yl)benzamide], the IC50 lay in the range of 100 to 500 nM. Molecule `Cc1ccc2c(c1)C(c1ccc(NC(=O)c3c(F)cccc3F)nc1)=CC1(CCC1)O2` [Example 106, 2,6-Difluoro-N-(5-(6-methylspiro[chromene-2,1′-cyclobutan]-4-yl)pyridin-2-yl)benzamide] registered a concentration for half-maximal inhibition (IC50) of 100 to 500 nM. Then `CC1(C)C=C(c2ccc(NC(=O)c3c(F)cccc3F)nc2)c2ccccc2O1` [Example 108, N-(5-(2,2-Dimethyl-2H-chromen-4-yl)pyridin-2-yl)-2,6-difluorobenzamide], with 25 to 50 nM; and `Cc1ccc2c(c1)OC1(C=C2c2ccc(NC(=O)c3c(F)cccc3F)nc2)CCC1` [Example 109, 2,6-Difluoro-N-(5-(7-methylspiro[chromene-2,1′-cyclobutan]-4-yl)pyridin-2-yl)benzamide], with 100 to 500 nM. In the case of `Cc1cccc2c1OC1(C=C2c2ccc(C(=O)Nc3c(F)cncc3F)cc2)CCC1` [Example 111, N-(3,5-Difluoropyridin-4-yl)-4-(8-methylspiro[chromene-2,1′-cyclobutan]-4-yl)benzamide], the IC50 was 25 to 50 nM.

Molecule `Cc1cc2c(cc1-c1cnc(NC(=O)c3c(F)cccc3F)cn1)OC(C)(CO)CC2` (stereo not drawn) [Example 114, 2,6-Difluoro-N-(5-(2-(hydroxymethyl)-2,6-dimethylchroman-7-yl)pyrazin-2-yl)benzamide] gave an IC50 of 25 to 50 nM. Then `Cc1cc2c(cc1-c1ccc(C(=O)Nc3c(F)cccc3F)cc1)OC1(CCC1)CC2` [Example 116, N-(2,6-Difluorophenyl)-4-(6-methylspiro[chroman-2,1′-cyclobutan]-7-yl)benzamide], with 25 to 50 nM; and `Cc1cc2c(cc1-c1ccc(NC(=O)c3c(F)cccc3F)cc1)OC1(CNC1)CC2=O` [Example 120, 2,6-Difluoro-N-(4-(6′-methyl-4′-oxospiro[azetidine-3,2′-chroman]-7′-yl)phenyl)benzamide hydrochloride], with 50 to 100 nM. Then `Cc1cc2c(cc1-c1ccc(NC(=O)c3c(F)cccc3F)cc1)OC1(CC2=O)CN(C)C1` [Example 121, N-(4-(1,6′-Dimethyl-4′-oxospiro[azetidine-3,2′-chroman]-7′-yl)phenyl)-2,6-difluorobenzamide], with 25 to 50 nM. Then `Cc1cc2c(cc1-c1ccc(NC(=O)c3c(F)cccc3F)nc1)OC1(COC1)CC2=O` [Example 124, 2,6-Difluoro-N-(5-(6-methyl-4-oxospiro[chroman-2,3′-oxetan]-7-yl)pyridin-2-yl)benzamide], with 25 to 50 nM; and `CCc1cc2c(cc1-c1ccc(NC(=O)c3c(F)cccc3F)cc1)OC1(COC1)CC2=O` [Example 125, N-(4-(6-Ethyl-4-oxospiro[chroman-2,3′-oxetan]-7-yl)phenyl)-2,6-difluorobenzamide], with less than 25 nM.
